{
  "source": "the Kinase Knowledgebase extract (Sharma et al. 2016)",
  "data": [
    {"target": "PIK3CA (human) (UniProt P42336)", "sequence (P42336 whole entry, looked up)": "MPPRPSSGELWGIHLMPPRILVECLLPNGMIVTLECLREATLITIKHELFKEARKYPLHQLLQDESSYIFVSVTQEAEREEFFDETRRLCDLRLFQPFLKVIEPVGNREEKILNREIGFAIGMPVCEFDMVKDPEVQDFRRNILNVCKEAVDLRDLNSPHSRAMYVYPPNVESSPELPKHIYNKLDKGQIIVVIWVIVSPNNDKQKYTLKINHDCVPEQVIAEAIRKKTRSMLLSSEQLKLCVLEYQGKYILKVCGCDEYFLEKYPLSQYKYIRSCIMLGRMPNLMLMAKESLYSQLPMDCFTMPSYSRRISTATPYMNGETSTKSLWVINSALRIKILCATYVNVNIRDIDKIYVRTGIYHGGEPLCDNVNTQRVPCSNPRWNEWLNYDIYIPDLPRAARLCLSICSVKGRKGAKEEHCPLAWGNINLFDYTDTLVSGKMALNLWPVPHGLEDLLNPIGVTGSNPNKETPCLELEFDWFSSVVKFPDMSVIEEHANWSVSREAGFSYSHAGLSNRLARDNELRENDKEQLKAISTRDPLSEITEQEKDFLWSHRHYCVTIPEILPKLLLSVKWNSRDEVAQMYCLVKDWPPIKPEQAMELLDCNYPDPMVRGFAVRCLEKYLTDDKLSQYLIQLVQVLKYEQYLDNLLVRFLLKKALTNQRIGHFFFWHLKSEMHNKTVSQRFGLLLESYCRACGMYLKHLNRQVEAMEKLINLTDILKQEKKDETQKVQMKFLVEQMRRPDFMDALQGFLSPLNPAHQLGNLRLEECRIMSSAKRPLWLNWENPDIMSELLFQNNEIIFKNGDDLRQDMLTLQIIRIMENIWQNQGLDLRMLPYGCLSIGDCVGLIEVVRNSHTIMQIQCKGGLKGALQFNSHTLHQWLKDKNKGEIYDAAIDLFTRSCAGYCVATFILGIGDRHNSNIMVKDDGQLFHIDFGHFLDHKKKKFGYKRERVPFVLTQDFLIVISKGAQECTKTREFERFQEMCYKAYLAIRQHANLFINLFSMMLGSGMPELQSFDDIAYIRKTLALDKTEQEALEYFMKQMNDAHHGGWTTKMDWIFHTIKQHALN", "test": "Assessment of PIK3CA Kinase Activity", "units": {"IC50": "nM"}, "values": [
      {"smiles": "CS(=O)(=O)N1CCC(Nc2nn3c(-c4cncc(C(F)(F)F)c4)cnc3s2)CC1", "IC50": "50 to 1000"},
      {"smiles": "NCC1CCN(c2nn3c(-c4cnc(N)c(C(F)(F)F)c4)cnc3s2)CC1", "IC50": "50 to 1000"},
      {"smiles": "Nc1ncc(-c2cnc3sc(N[C@H]4CC[C@@H](O)CC4)nn23)cc1C(F)(F)F", "IC50": 77},
      {"smiles": "CS(=O)(=O)N1CCC(N(CCN2CCCC2)c2nn3c(-c4cnc(N)c(C(F)(F)F)c4)cnc3s2)CC1", "IC50": "1 to 50"},
      {"smiles": "Nc1ncc(-c2cnc3sc(N4CCC(N)CC4)nn23)cc1C(F)(F)F", "IC50": "50 to 1000"},
      {"smiles": "CC(C)(C)OC(=O)N1CC(S(=O)(=O)N2CCC(Nc3nn4c(-c5cnc(N)c(C(F)(F)F)c5)cnc4s3)CC2)C1", "IC50": 131},
      {"smiles": "CN[C@H]1CC[C@H](N(C)c2nn3c(-c4cnc(N)c(C(F)(F)F)c4)cnc3s2)CC1", "IC50": "50 to 1000"},
      {"smiles": "CS(=O)(=O)N1CCC2(CC1)CN(c1nn3c(-c4cnc(N)c(C(F)(F)F)c4)cnc3s1)C2", "IC50": "50 to 1000"},
      {"smiles": "CCNC(=O)N1CCC(N(C)c2nn3c(-c4cnc(N)c(C(F)(F)F)c4)cnc3s2)CC1", "IC50": "50 to 1000"},
      {"smiles": "CCNC(=O)N[C@H]1CC[C@@H](Nc2nn3c(-c4cnc(N)c(C(F)(F)F)c4)cnc3s2)CC1", "IC50": 63},
      {"smiles": "CCNC(=O)N[C@H]1CC[C@H](Nc2nn3c(-c4cnc(N)c(C(F)(F)F)c4)c(Cl)nc3s2)CC1", "IC50": "1 to 50"},
      {"smiles": "CC(C)(C)OC(=O)N1CCC2(CC1)CC(Nc1nn3c(-c4cnc(N)c(C(F)(F)F)c4)cnc3s1)C2", "IC50": "50 to 1000"},
      {"smiles": "Nc1ncc(-c2cnc3sc(N4CCCC5(CCNCC5)C4)nn23)cc1C(F)(F)F", "IC50": "50 to 1000"},
      {"smiles": "CS(=O)(=O)NC1CCN(c2nn3c(-c4cnc(N)c(C(F)(F)F)c4)cnc3s2)C1", "note": "(centres undefined)", "IC50": "50 to 1000"},
      {"smiles": "CS(=O)(=O)N1CCC(Nc2nn3c(-c4cnc(N)c(C(F)(F)F)c4)c(Cl)nc3s2)CC1", "IC50": 24},
      {"smiles": "NCC(=O)O[C@H]1CC[C@H](Nc2nn3c(-c4cnc(N)c(C(F)(F)F)c4)cnc3s2)CC1", "IC50": "1 to 50"},
      {"smiles": "CCNC(=O)NC1CCCN(c2nn3c(-c4cnc(N)c(C(F)(F)F)c4)cnc3s2)C1", "note": "(centres undefined)", "IC50": 483},
      {"smiles": "CC(=O)N[C@H]1CC[C@H](Nc2nn3c(-c4cnc(N)c(C(F)(F)F)c4)cnc3s2)CC1", "IC50": "50 to 1000"},
      {"smiles": "Nc1ncc(-c2cnc3sc(NC4CCC(=NOCCF)CC4)nn23)cc1C(F)(F)F", "note": "(centres undefined)", "IC50": "1 to 50"},
      {"smiles": "CS(=O)(=O)N1CCC(Nc2nn3c(-c4cnc(N5CCNCC5)c(C(F)(F)F)c4)cnc3s2)CC1", "IC50": 1400},
      {"smiles": "CC(C)(C)OC(=O)NCC1CCN(c2nn3c(-c4cnc(N)c(C(F)(F)F)c4)cnc3s2)CC1", "IC50": "50 to 1000"},
      {"smiles": "CC(C)(C)OC(=O)N1CCC(CNc2nn3c(-c4cnc(N)c(C(F)(F)F)c4)cnc3s2)CC1", "IC50": "50 to 1000"},
      {"smiles": "CN(c1nn2c(-c3cnc(N)c(C(F)(F)F)c3)cnc2s1)C1CCC(=NO)CC1", "note": "(centres undefined)", "IC50": 82},
      {"smiles": "CC(C)(C)OC(=O)N1CCC2(CCCN(c3nn4c(-c5cnc(N)c(C(F)(F)F)c5)cnc4s3)C2)CC1", "IC50": "50 to 1000"},
      {"smiles": "Nc1ncc(-c2cnc3sc(NC4CC5(CCNCC5)C4)nn23)cc1C(F)(F)F", "IC50": 17},
      {"smiles": "Cc1nc2sc(NC3CCN(S(C)(=O)=O)CC3)nn2c1-c1cnc(N)c(C(F)(F)F)c1", "IC50": "1 to 50"},
      {"smiles": "Nc1ncc(-c2c(Cl)nc3sc(N[C@H]4CC[C@H](O)CC4)nn23)cc1C(F)(F)F", "IC50": 104},
      {"smiles": "Nc1ncc(-c2cnc3sc(N4CCC5(CCNCC5)CC4)nn23)cc1C(F)(F)F", "IC50": 141},
      {"smiles": "CNC(=O)C1CCCN(c2nn3c(-c4cnc(N)c(C(F)(F)F)c4)cnc3s2)C1", "note": "(centres undefined)", "IC50": 213},
      {"smiles": "CC(C)(C)OC(=O)N1C[C@@H]2CN(c3nn4c(-c5cnc(N)c(C(F)(F)F)c5)cnc4s3)C[C@@H]2C1", "IC50": 119},
      {"smiles": "CN1CCC(CNc2nn3c(-c4cnc(N)c(C(F)(F)F)c4)cnc3s2)CC1", "IC50": 301},
      {"smiles": "CS(=O)(=O)NCC1CCN(c2nn3c(-c4cnc(N)c(C(F)(F)F)c4)cnc3s2)CC1", "IC50": "50 to 1000"},
      {"smiles": "CS(=O)(=O)N1CCN2CCN(c3nn4c(-c5cnc(N)c(C(F)(F)F)c5)cnc4s3)CC2C1", "note": "(centres undefined)", "IC50": 94},
      {"smiles": "CS(=O)(=O)N1CC2CN(c3nn4c(-c5cnc(N)c(C(F)(F)F)c5)cnc4s3)CC2C1", "note": "(centres undefined)", "IC50": 34},
      {"smiles": "Nc1ccc(-c2cnc3sc(N[C@H]4CC[C@H](O)CC4)nn23)cn1", "IC50": "50 to 1000"},
      {"smiles": "CC(C)(C)OC(=O)N1CCC(Nc2nn3c(-c4cnc(N)c(C(F)(F)F)c4)cnc3s2)CC1", "IC50": "50 to 1000"},
      {"smiles": "Nc1ncc(-c2cnc3sc(N4CCN5CCNCC5C4)nn23)cc1C(F)(F)F", "note": "(centres undefined)", "IC50": 85},
      {"smiles": "CCNC(=O)N1CCC(CNc2nn3c(-c4cnc(N)c(C(F)(F)F)c4)cnc3s2)CC1", "IC50": "1 to 50"},
      {"smiles": "Nc1ncc(-c2cnc3sc(N[C@H]4CC[C@H](NS(=O)(=O)c5ccc(F)cc5F)CC4)nn23)cc1C(F)(F)F", "IC50": "50 to 1000"},
      {"smiles": "COc1cncc(-c2cnc3sc(NCC4CCN(S(C)(=O)=O)CC4)nn23)c1", "IC50": "50 to 1000"},
      {"smiles": "Nc1ncc(-c2cnc3sc(N4CCCNC4=O)nn23)cc1C(F)(F)F", "IC50": 170},
      {"smiles": "Nc1ncc(-c2cnc3sc(NC[C@H]4CC[C@H](O)CC4)nn23)cc1C(F)(F)F", "IC50": 129},
      {"smiles": "Nc1ncc(-c2cnc3sc(N[C@H]4CC[C@H](N)CC4)nn23)cc1C(F)(F)F", "IC50": 42},
      {"smiles": "CCNC(=O)N[C@H]1CC[C@H](Nc2nn3c(-c4cnc(N)c(C(F)(F)F)c4)cnc3s2)CC1", "IC50": 5},
      {"smiles": "CC(=O)NC1CCCN(c2nn3c(-c4cnc(N)c(C(F)(F)F)c4)cnc3s2)C1", "note": "(centres undefined)", "IC50": 274},
      {"smiles": "CC(C)(C)OC(=O)NCCCNc1nn2c(-c3cnc(N)c(C(F)(F)F)c3)cnc2s1", "IC50": "50 to 1000"},
      {"smiles": "CS(=O)(=O)N1CCC(Nc2nn3c(-c4cnc(N)c(C(F)(F)F)c4)cnc3s2)CC1", "IC50": 12},
      {"smiles": "Nc1ncc(-c2cnc3sc(N4CCCC(CO)C4)nn23)cc1C(F)(F)F", "note": "(centres undefined)", "IC50": 179},
      {"smiles": "Nc1ncc(-c2cnc3sc(NCC4CCNCC4)nn23)cc1C(F)(F)F", "IC50": "50 to 1000"},
      {"smiles": "CCOC(=O)C1CCCN(c2nn3c(-c4cnc(N)c(C(F)(F)F)c4)cnc3s2)C1", "note": "(centres undefined)", "IC50": "50 to 1000"},
      {"smiles": "CC(C)(C)OC(=O)N1CCN(c2nn3c(-c4cnc(N)c(C(F)(F)F)c4)cnc3s2)CC1", "IC50": "50 to 1000"},
      {"smiles": "CC(C)(C)OC(=O)N1CCN(CCNc2nn3c(-c4cnc(N)c(C(F)(F)F)c4)cnc3s2)CC1", "IC50": 86},
      {"smiles": "NCCCNc1nn2c(-c3cnc(N)c(C(F)(F)F)c3)cnc2s1", "IC50": "50 to 1000"},
      {"smiles": "Nc1ncc(-c2c(Cl)nc3sc(N[C@H]4CC[C@@H](N)CC4)nn23)cc1C(F)(F)F", "IC50": "50 to 1000"},
      {"smiles": "Nc1ncc(-c2cnc3sc(N[C@H]4CC[C@@H](N)CC4)nn23)cc1C(F)(F)F", "IC50": "1 to 50"},
      {"smiles": "Nc1ncc(-c2cnc3sc(NC4CCN(S(=O)(=O)C5CNC5)CC4)nn23)cc1C(F)(F)F", "IC50": 14},
      {"smiles": "CS(=O)(=O)NCC1CCCN(c2nn3c(-c4cnc(N)c(C(F)(F)F)c4)cnc3s2)C1", "note": "(centres undefined)", "IC50": 102},
      {"smiles": "Nc1ncc(-c2cnc3sc(N4C[C@H]5CNC[C@H]5C4)nn23)cc1C(F)(F)F", "IC50": "50 to 1000"},
      {"smiles": "CN(c1nn2c(-c3cnc(N)c(C(F)(F)F)c3)cnc2s1)C1CCNCC1", "IC50": "50 to 1000"},
      {"smiles": "Nc1ncc(-c2c(Cl)nc3sc(N[C@H]4CC[C@H](NS(=O)(=O)c5ccc(F)cc5F)CC4)nn23)cc1C(F)(F)F", "IC50": 1700},
      {"smiles": "C[C@]1(O)CC[C@@H](Nc2nn3c(-c4cnc(N)c(C(F)(F)F)c4)cnc3s2)CC1", "IC50": 22},
      {"smiles": "CS(=O)(=O)NCCCNc1nn2c(-c3cnc(N)c(C(F)(F)F)c3)cnc2s1", "IC50": "1 to 50"},
      {"smiles": "CN1CCN(C(=O)NCCNc2nn3c(-c4cnc(N)c(C(F)(F)F)c4)cnc3s2)CC1", "IC50": 262},
      {"smiles": "CC(C)(C)OC(=O)N[C@H]1CC[C@H](Nc2nn3c(-c4cnc(N)c(C(F)(F)F)c4)cnc3s2)CC1", "IC50": 12},
      {"smiles": "CS(=O)(=O)NC1CCN(c2nn3c(-c4cnc(N)c(C(F)(F)F)c4)cnc3s2)CC1", "IC50": 162},
      {"smiles": "CN(c1nn2c(-c3cnc(N)c(C(F)(F)F)c3)cnc2s1)C1CCC(=NOCCF)CC1", "note": "(centres undefined)", "IC50": "50 to 1000"},
      {"smiles": "CS(=O)(=O)NCCNc1nn2c(-c3cnc(N)c(C(F)(F)F)c3)cnc2s1", "IC50": 269},
      {"smiles": "CC(C)(C)OC(=O)NC1CCCN(c2nn3c(-c4cnc(N)c(C(F)(F)F)c4)cnc3s2)C1", "note": "(centres undefined)", "IC50": 230},
      {"smiles": "NCC1CCCN(c2nn3c(-c4cnc(N)c(C(F)(F)F)c4)cnc3s2)C1", "note": "(centres undefined)", "IC50": "50 to 1000"},
      {"smiles": "c1cc(-c2cnc3sc(N4CCOCC4)nn23)c2cn[nH]c2c1", "IC50": "50 to 1000"},
      {"smiles": "Nc1ncc(-c2cnc3sc(N4CCCC(C(=O)O)C4)nn23)cc1C(F)(F)F", "note": "(centres undefined)", "IC50": "50 to 1000"},
      {"smiles": "NC(=O)C1CCN(c2nn3c(-c4cnc(N)c(C(F)(F)F)c4)cnc3s2)CC1", "IC50": "50 to 1000"},
      {"smiles": "COc1cncc(-c2cnc3sc(NC4CCN(S(C)(=O)=O)CC4)nn23)c1", "IC50": "50 to 1000"},
      {"smiles": "CN(c1nn2c(-c3cnc(N)c(C(F)(F)F)c3)cnc2s1)C1CCN(S(C)(=O)=O)CC1", "IC50": 62}
    ]}
  ]
}
